Where a name gives a salt, the structure may show the parent alone.

Results on 30 molecules are retold here after US10919896B2, “Preparation and uses of pyrimidinone derivatives” (Cancer Research Technology Limited, priority 2016, dated 2021).

One experiment has as its target Cdc7/ASK (Homo sapiens, UniProt O00311). The experiment can be described thus: Cdc7 Biochemical Assay Method 1: 384 well ELISA, whole protein substrate MCM2, antibody against Phospho MCM2 (S53). On the set-up: purchased. The note with it: 2 μM ATP, read-out: Biochemical Method 1 (pIC50) (converted). The method in brief:
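MCM2 protein substrate was coated on nickel-chelate plates, then Cdc7/ASK was added with 2 μM ATP in 50 mM Tris-HCl pH 8.5, 10 mM MgCl2, 1 mM DTT, 4% DMSO, 90 min at room temperature. Phospho-MCM2 (S53) was detected by ELISA with an AP secondary and PNPP absorbance. IC50 was derived from % inhibition versus no-compound and no-enzyme controls.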
Background: ELISA stands for enzyme-linked immunosorbent assay.

Experiment [1] has as its system Cdc7 (pS53MCM2 levels in HCT116 cells). The experiment can be described thus: Cdc7 Cell Pharmacodynamics Assay Method 1: pS53MCM2 levels in HCT116 cells, 6 hours. Type of experiment: cell-based. The note with it: for EC50: Homo sapiens, HCT-116, 6 h, read-out: Biomarker Method 1 (pEC50) (converted). The text has this: This protocol describes a method to investigate the inhibition of Cdc7 activity of compounds by measuring pS53MCM2 levels in cells after treatment.
• HCT116 cells (wild type P53 positive) • McCoys 5A media (PAA Laboratories Ltd, E15-022) • 10% FCS (Sera Laboratories International Ltd, EU000F Batch:108005) • 100× L-Glutamine (Invitrogen, 25030-024) • D-PBS without CaCl2 and MgCl2 (Invitrogen, ref 14190-094) • Trypsin/EDTA (Invitrogen 25300-054) • 2% BSA in PBS • Cell Extraction Buffer (Invitrogen FNN0011) • Protease inhibitor cocktail (Sigma P-2714) • PMSF 0.3M stock in DMSO (Sigma P7626) • Antibody-rabbit pMCM2 Ser53 (Bethyl #A300-756A) • Antibody-goat MCM2 (Bethyl #A300-122A) • Antibody-goat Anti Rabbit IgG HRP (Perbio Science UK Ltd 31462) • 1×PBS • FACE Wash buffer (0.02% Triton X100 in 1×PBS) • SuperSignal ELISA Pico Chemiluminescent Substrate (Perbio Science UK Ltd 37070) Method • 72 hours prior to the start of the experiment plate 1×10^6 HCT 116 cells in a 150 cm^2 flask in complete McCoys 5A media (+10% FCS+1× L-glutamine). • Plate 20,000 HCT116 cells per well in standard TC treated 96 well plate in 100 μL complete McCoys 5A media. • Allow cells to settle overnight in incubator set at 37° C. and 5% CO2. • Remove intermediate plate from fridge and place at 37° C. overnight to allow to equilibrate. • Cell treatment: cell assay plate 100 μL; daughter to cell transfer volume 3.33 μL; daughter volume 45 μL; mother plate to daughter volume 5 μL. • Once all cells are treated remove the cells to the incubator and incubate for 6 hours. • Dilute the capture antibody (total MCM2#A300-122A) 1 in 250 in the required volume of PBS (5 mL per assay plate) and add 50 μL to each well of a Hybond plate excluding wells 12E to 12H. In these wells add 50 μL PBS. Seal the plate and incubate at room temperature for a minimum of 2 hours. • Defrost aliquot of Invitrogen Cell Extraction Buffer (FNN0011) on ice and supplement with appropriate volume of both Sigma protease inhibitor cocktail (P-2714) and PMSF (final conc 1 mM from a 1 M stock in DMSO). • After the 6 hour cell treatment time tap out the media from the assay plates and place them in the −70° C. freezer for at least 5 minutes. • Remove plates from freezer and add 20 μL of ice cold complete lysis buffer on ice. Incubate cells for 30 minutes at 4° C. • Add 80 μL per well 2% BSA. • Transfer 80 μL from the lysis plate to the same wells in the capture/ELISA plate. Cover with plate seal and incubate plates overnight at 4° C. • Wash plates with PBS, remove any residual remaining liquid and add 50 μL per well of pMCM2 Ser53 antibody (#A300-756A) diluted 1 in 100 in 2% BSA. Cover plate and incubate at room temperature for 2 hours with gentle shaking. • Wash plates with PBS, remove any residual remaining liquid and Incubate with 50 μL goat anti rabbit antibody (1 in 800 dilution in 2% BSA) for 1 hour at room temperature. • Wash plates with PBS, remove any residual remaining liquid and add 50 μL mixed SuperSignal Pico substrate. • Incubate each plate for 5 minutes at room temperature shielding the plates from direct light (with a cover plate). Read plates with the luminescent detection. Method 2A and 2B

Sequence of Cdc7/ASK (O00311 whole entry): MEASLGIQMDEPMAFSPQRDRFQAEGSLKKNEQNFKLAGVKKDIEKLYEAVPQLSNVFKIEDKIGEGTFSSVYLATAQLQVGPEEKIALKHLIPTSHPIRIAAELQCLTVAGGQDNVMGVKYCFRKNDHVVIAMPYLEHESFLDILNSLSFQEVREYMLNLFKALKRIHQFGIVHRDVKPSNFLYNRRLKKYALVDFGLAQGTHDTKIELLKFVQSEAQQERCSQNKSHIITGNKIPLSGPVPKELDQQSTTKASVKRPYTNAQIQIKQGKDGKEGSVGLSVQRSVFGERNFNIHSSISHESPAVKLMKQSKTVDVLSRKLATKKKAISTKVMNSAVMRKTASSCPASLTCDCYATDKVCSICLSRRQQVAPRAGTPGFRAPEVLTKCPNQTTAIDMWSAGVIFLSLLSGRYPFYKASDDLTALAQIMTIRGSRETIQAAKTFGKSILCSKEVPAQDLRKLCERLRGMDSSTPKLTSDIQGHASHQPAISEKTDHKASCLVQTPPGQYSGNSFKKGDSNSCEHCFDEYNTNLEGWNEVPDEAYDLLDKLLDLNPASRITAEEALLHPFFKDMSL
Sequence of Cdc7/ASK (Q9UBU7 whole entry partner): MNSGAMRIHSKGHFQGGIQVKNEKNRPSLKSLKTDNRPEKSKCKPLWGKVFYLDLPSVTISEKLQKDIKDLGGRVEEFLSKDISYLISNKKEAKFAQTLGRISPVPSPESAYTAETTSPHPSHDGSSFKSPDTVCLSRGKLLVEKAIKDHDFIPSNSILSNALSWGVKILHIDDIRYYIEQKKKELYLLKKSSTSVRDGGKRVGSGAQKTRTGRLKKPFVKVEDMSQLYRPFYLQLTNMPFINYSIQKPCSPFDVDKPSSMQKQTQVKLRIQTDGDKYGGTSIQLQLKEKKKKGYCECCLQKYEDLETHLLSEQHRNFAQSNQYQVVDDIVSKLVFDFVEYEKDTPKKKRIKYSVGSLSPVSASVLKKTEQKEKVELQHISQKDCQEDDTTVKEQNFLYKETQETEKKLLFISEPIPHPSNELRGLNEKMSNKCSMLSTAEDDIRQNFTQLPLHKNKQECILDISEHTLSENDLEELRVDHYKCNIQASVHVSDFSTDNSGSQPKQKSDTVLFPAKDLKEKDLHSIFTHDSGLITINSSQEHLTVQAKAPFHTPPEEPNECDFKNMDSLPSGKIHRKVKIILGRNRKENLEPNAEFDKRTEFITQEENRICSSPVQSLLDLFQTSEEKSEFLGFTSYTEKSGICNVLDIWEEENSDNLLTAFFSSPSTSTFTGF

Regarding `O=c1[nH]c(-c2ccncc2)nc(N2CC3C(C2)C3(F)F)c1Cl` (stereo not drawn) [Compound 134], the IC50 at Cdc7/ASK was 19.1 nM. Further, the EC50 in experiment [1] was 692 nM.
The like results for `O=c1[nH]c(-c2ccncc2)nc(N2CCNCC2)c1Cl` [Compound 416, 5-chloro-4-piperazin-1-yl-2-(4-pyridyl)-1H-pyrimidin-6-one hydrochloride] were, in that order, 1.95 nM and 110 nM.
On to `CC(C)(C)[C@H]1CN(c2nc(-c3ccncc3)[nH]c(=O)c2Cl)CCN1` [Compound 157], for which the IC50 on Cdc7/ASK was 2.95 nM. Moreover, the EC50 in experiment [1] is 79.4 nM.
As for `O=c1[nH]c(-c2ccncc2)nc(N2C3CCCC2COC3)c1Cl` [Compound 154], the IC50 at Cdc7/ASK is 2.45 nM. The EC50 in experiment [1] is 63.1 nM.
In the case of `O=c1[nH]c(-c2ccncc2)nc(N2CCOC(CCO)C2)c1Cl` (stereo not drawn) [Compound 94], the IC50 at Cdc7/ASK is 6.92 nM. In experiment [1], the EC50 is 759 nM.
The like results for `O=c1[nH]c(-c2ccncc2)nc(N2CCCC(F)C2)c1Cl` (stereo not drawn) [Compound 131] were, in that order, 8.13 nM and 112 nM.
With `CC(C)(C)[C@H]1CN(c2nc(-c3ccnc(F)c3)[nH]c(=O)c2Cl)CCN1.Cl` [Compound 160], the IC50 at Cdc7/ASK is 1.62 nM. In addition, in experiment [1], the “Biomarker Method 1 (pEC50)” value was 7.50.
Turning to `CC(C)[C@H]1CN(c2nc(-c3ccncc3)[nH]c(=O)c2Cl)CCN1` [Compound 309], on Cdc7/ASK, the IC50 is 2 nM. The EC50 in experiment [1] was 61.7 nM.
Consider `O=c1[nH]c(-c2ccncc2)nc(N2CCN[C@@H](CO)C2)c1Cl` [Compound 129], for which the IC50 on Cdc7/ASK was 2.09 nM. For the same molecule, in experiment [1], the EC50 is 871 nM.
On to `COc1ccc(C2CN(c3nc(-c4ccncc4)[nH]c(=O)c3Cl)CCN2)cc1` (stereo not drawn) [Compound 169], for which, at Cdc7/ASK, the IC50 was 30.2 nM. The EC50 in experiment [1] is 562 nM.
Consider `O=c1[nH]c(-c2ccncc2)nc(N2CCN(CC3CCCCC3)CC2)c1Cl` [Compound 85], for which the IC50 on Cdc7/ASK is 47.9 nM. Further, in experiment [1], the EC50 was 891 nM.
As to `CCCN1CCCN(c2nc(-c3ccncc3)[nH]c(=O)c2Cl)CC1` [Compound 143], the IC50 on Cdc7/ASK was 21.4 nM. In experiment [1], the EC50 is 407 nM.
With `O=c1[nH]c(-c2ccncc2)nc(N2CCOC(C(F)(F)F)C2)c1Cl` (stereo not drawn) [Compound 159], at Cdc7/ASK, the IC50 is 6.61 nM. In addition, the EC50 in experiment [1] was 209 nM.
`CS(=O)(=O)N1CCCN(c2nc(-c3ccncc3)[nH]c(=O)c2Cl)CC1` [Compound 145]: the IC50 at Cdc7/ASK is 2.51 nM. Besides, in experiment [1], the EC50 was 269 nM.
Take `O=c1[nH]c(-c2ccncc2)nc(N2CCN[C@@H](Cc3ccccc3)C2)c1Cl` [Compound 164]: the IC50 at Cdc7/ASK is 20.9 nM. For the same molecule, in experiment [1], the EC50 was 724 nM.
With `O=C(N1CCN(c2nc(-c3ccncc3)[nH]c(=O)c2Cl)CC1)C(F)(F)F` [Compound 76], the IC50 at Cdc7/ASK is 3.47 nM. The EC50 in experiment [1] was 182 nM.
Regarding `O=c1[nH]c(-c2ccncc2)nc(N2CCCCCC2)c1Cl` [Compound 114], the IC50 at Cdc7/ASK was 19.1 nM. Moreover, the EC50 in experiment [1] was 1550 nM.
For `O=c1[nH]c(-c2ccncc2)nc(N2CCCC(CO)C2)c1Cl` (stereo not drawn) [Compound 123], the IC50 at Cdc7/ASK is 9.33 nM. In experiment [1], the EC50 was 224 nM.
For `O=c1[nH]c(-c2ccncc2)nc(N2CCN(CC(F)(F)F)CC2)c1Cl` [Compound 146], in that order: 7.24 nM and 229 nM.
The like results for `O=c1[nH]c(-c2ccncc2)nc(N2CCCC(F)(F)C2)c1Cl` [Compound 132] were, in that order, 1.95 nM and 33.9 nM.
`N#CC1CCN(c2nc(-c3ccncc3)[nH]c(=O)c2Cl)CC1` [Compound 153]: the IC50 at Cdc7/ASK is 1.78 nM. The EC50 in experiment [1] is 126 nM.
Regarding `O=c1[nH]c(-c2ccncc2)nc(N2CCCC(C(F)(F)F)C2)c1Cl` (stereo not drawn) [Compound 107], on Cdc7/ASK, the IC50 is 7.08 nM. Besides, the “Biomarker Method 1 (pEC50)” value in experiment [1] is 6.44.
Turning to `O=c1[nH]c(-c2ccncc2)nc(N2CCC(F)(F)CC2)c1Cl` [Compound 127], on Cdc7/ASK, the IC50 is 45.7 nM. In experiment [1], the EC50 is 224 nM.
The like results for `CC1CN(c2nc(-c3ccncc3)[nH]c(=O)c2Cl)CCN1C` (stereo not drawn) [Compound 28] were, in that order, 11.2 nM and 191 nM.
In the case of `C[C@@H]1CN(c2nc(-c3ccncc3)[nH]c(=O)c2Cl)[C@H](C)CN1` [Compound 166], the IC50 at Cdc7/ASK was 35.5 nM. The EC50 in experiment [1] is 2820 nM.
Regarding `O=c1[nH]c(-c2ccncc2)nc(N2CCNC(c3cccs3)C2)c1Cl` (stereo not drawn) [Compound 177], the IC50 on Cdc7/ASK was 5.13 nM. Moreover, the EC50 in experiment [1] is 214 nM.
For `O=c1[nH]c(-c2ccncc2)nc(N2CCCC(C(F)(F)F)C2)c1Cl` (stereo not drawn) [Compound 176], the IC50 on Cdc7/ASK was 20.9 nM. Further, the “Biomarker Method 1 (pEC50)” value in experiment [1] stood at 5.56.
Regarding `C#CCN1CCN(c2nc(-c3ccncc3)[nH]c(=O)c2Cl)CC1` [Compound 150], the IC50 at Cdc7/ASK was 14.1 nM. The EC50 in experiment [1] was 427 nM.
In the case of `C[C@H]1CN(c2nc(-c3ccncc3)[nH]c(=O)c2Cl)CCN1C(=O)C(F)(F)F` [Compound 77, 5-chloro-4-[(3S)-3-methyl-4-(2,2,2-trifluoroacetyl)piperazin-1-yl]-2-(4-pyridyl)-1H-pyrimidin-6-one], the IC50 on Cdc7/ASK was 2.95 nM. Moreover, the EC50 in experiment [1] was 93.3 nM.
The like results for `CC1CC(C)CN(c2nc(-c3ccncc3)[nH]c(=O)c2Cl)C1` (stereo not drawn) [Compound 103] were, in that order, 29.5 nM and 1150 nM.
